Target: Benzodiazepine Receptors
Experiment: Benzodiazepine receptor binding affinity: displacement of 3H-diazepam from rat synaptosomal membranes
Details: for Ki: 3H-diazepam; for Ki / IC50: 4° C., 15 min, triplicate; for IC50: inhibition of specific 3H-diazepam binding; for Relative Potency: relative to Diazepam = 100, 3H-diazepam
Procedure: 2'-Iododiazepam, Diazepam and Fludiazepam were screened as for benzodiazepine binding affinity according to the method reported by Nakatsuka (Life Sciences 36 (2) 113-119, 1985). An aliquot of synaptosomal membrane preparations was incubated at 4° C. for 15 min. with each of the unlabeled competing drugs (2'-Iodoiazepam, Diazepam and Fludiazepam) in different concentration and 3H-diazepam. The incubation was terminated by adding ice-cold Tris-HCl buffer followed by a rapid filtration through a Whatman GF/B filter. The bound 3H-diazepam retained on the filter was extracted with ACS-II (Amersham) and counted. All incubations were conducted in triplicate. Nonspecific binding was determined in tubes containing diazepam. Specific binding was calculated by subtracting the nonspecific binding from the total binding. IC50 values, the concentrations of the tested compounds that cause 50% inhibition of the specific 3H-diazepam were determined from the displacement curves obtained.

Row | SMILES | Ki [nM] | IC50 [nM] | Relative Potency
1 | CN1C(=O)CN=C(c2ccccc2I)c2cc(Cl)ccc21 [2'-Iododiazepam, 7-chloro-1-methyl-5-(2-iodophenyl)-3H-1,4-benzodiazepin-2-one] | 0.21 | 0.25 | 3600
2 | CN1C(=O)CN=C(c2ccccc2)c2cc(Cl)ccc21 [Diazepam] | 7.7 | 9 | 100
3 | CN1C(=O)CN=C(c2ccccc2F)c2cc(Cl)ccc21 [Fludiazepam] | 1 | 1.2 | 770

Source: patent US5216147A, “Radioactive benzodiazepine derivatives” (Sumitomo Chemical Company, Limited, priority 1987, dated 1993)
